Patent publication US8993594B2, “Isoquinolin-1(2H)-one derivatives as PARP-1 inhibitors” (Nerviano Medical Sciences S.R.L., priority 2009, dated 2015)
Structures can show the parent of a compound that is named as a salt.

How the values were obtained:
[1] = molecular target: PARP-1 FL (Homo sapiens, UniProt P09874); assay: Fluorescence polarization probe displacement assay; format: binding; conditions: for DC50: half maximal displacement concentration
Description: (§1) Affinity of the tested compounds and their selectivity with respect to the different PARP isoforms of interest was quantified in a displacement assay.
(§2) In all of the experiments, the polarization signal was measured using a Saphire2 plate reader (Tecan). Data analysis was performed using Dynafit software. In particular, titration data were fitted to the following equilibria: Enzyme+probe <==> Complex Enzyme-probe, while displacement data were fitted to the following equilibria: Enzyme+probe <==> Complex Enzyme-probe, Enzyme+Compound <==> Complex Enzyme-Compound, whereby binding of probe and compound on the enzyme are mutually exclusive (pure competitive mechanism). Displacement data were also fitted using Excel spreadsheet (Microsoft Inc. Seattle, USA) to a four parameter logistic model (4PL), or Hill-Slope model to calculate DC50s where the DC50 value represents the compound concentration at which the polarization signal is diminished by 50% compared to untreated controls.
(§3) In agreement, affinity binding constants (KD) were determined by fitting with a pure competitive mechanism. KD values are the average of three independent experiments.

[2] = molecular target: T1, PARP-3 FL (Homo sapiens, UniProt Q9Y6F1); assay: Fluorescence polarization probe displacement assay; format: binding; conditions: compound P1 as the probe
T1 sequence (Q9Y6F1 1-533): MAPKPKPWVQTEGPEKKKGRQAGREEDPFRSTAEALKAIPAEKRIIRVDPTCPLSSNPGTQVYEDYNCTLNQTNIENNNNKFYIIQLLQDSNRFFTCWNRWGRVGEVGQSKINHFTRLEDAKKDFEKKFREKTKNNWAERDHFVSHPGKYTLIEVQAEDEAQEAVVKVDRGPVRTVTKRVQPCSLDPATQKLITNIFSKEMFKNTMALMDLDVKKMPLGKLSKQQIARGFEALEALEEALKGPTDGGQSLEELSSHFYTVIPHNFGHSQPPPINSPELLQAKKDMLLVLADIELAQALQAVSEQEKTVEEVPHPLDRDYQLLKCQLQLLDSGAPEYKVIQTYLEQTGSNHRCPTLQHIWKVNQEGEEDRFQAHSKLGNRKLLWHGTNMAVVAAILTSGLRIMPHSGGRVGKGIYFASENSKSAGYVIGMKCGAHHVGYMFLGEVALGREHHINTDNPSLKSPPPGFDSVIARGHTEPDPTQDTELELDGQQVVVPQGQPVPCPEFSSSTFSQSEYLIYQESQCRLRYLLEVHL
Description: as §1, §2, §3

[3] = system: hydrogen peroxide induced PAR formation in HeLa cells; assay: Cellular PAR assay (inhibition of hydrogen peroxide induced PAR formation); format: cell-based; conditions: Homo sapiens, 0.1 mM hydrogen peroxide 15 min
Description: Compounds potencies were evaluated by measuring the inhibition of poly (ADP-ribose) (PAR) chains formation as a marker for PARP-1 inhibition.
Cellular activity of PARP-1 inhibitors was assessed by measuring the inhibition of the hydrogen peroxide induced PAR formation in HeLa cells (ECACC). Cellular PAR levels were measured by immunocytochemistry and quantified using an ArrayScan vTi instrument (Cellomics Thermo Scientific).
Studies were performed as follows: 6000 cells/well were seeded in 96 well plates (Perkin Elmer) in MEM/10% FCS and incubated for 24 hours at 37° C., 5% carbon dioxide. Test compounds were then added at the required concentration for 30′. […] Concentration curves were prepared in MEM/10% FCS from compound stocks in DMSO and final DMSO concentration was 0.002% (v/v). Duplicate wells for each concentration point were prepared with a typical highest compound concentration of 20 μM and serial dilution 1:3. […] Non-specific binding sites were blocked by incubating wells for 30 min in PBS containing 5% (w/v) FBS 0.05% tween20. […] After washing further 3 times in PBS, cellular PAR immunoreactivity was assessed using the ArrayScan vTi instrument, with a Zeiss 10×0.5 N.A. objective, and applying the Cytotoxicity.V3 algorithm (Cellomics/Thermo Fisher) with a XF100 filter. At least 10 fields, corresponding to at least 900 cells, were read for each well.
The following formula is used: IC50=Bottom+(Top−Bottom)/(1+10^((Log EC50−X))); X is the logarithm of concentration. IC50 is the response; IC50 starts at Bottom and goes to Top with a sigmoid shape.

[4] = Pharmacokinetics and oral bioavailability in the mouse; format: in vivo; conditions: for F on AUC: 10 mg/kg, ratio of oral to IV dose-normalized plasma AUC; for clearance / Vd / AUC / half-life: male, Balb Nu/Nu, plasma, mean value; for clearance / Vd: 10 mg/kg intravenous bolus; for clearance: read-out: CL(IV bolus); for Vd: read-out: Vdss (IV bolus); for AUC / half-life: 10 mg/kg oral; for half-life: read-out: T½ (oral) (converted)
Description: The compounds were formulated in 10% tween 80/dextrose for intravenous bolus administration while oral administrations were performed using the compounds formulated in 0.5% methylcellulose. A single administration at the dose of 10 mg/kg was given and three male animals for each route were used. […] Plasma samples were prepared by plasma proteins precipitation adding 200 µl of methanol to 10 µl of plasma in a 96 well plate. […] The supernatant was considered as final extract and injected onto the LC-MS-MS system (HPLC system: Hewlett Packard 1100 series using Atlantis HILIC Silica 50*2.1 mm 5.0 μM analytical column; MS instrument: Perkin Elmer SCIEX API 2000 and ionization performed with Turbo Ion Spray in positive ion mode). Lower limit of quantification is 5.0 ng/ml, upper limit of quantification is 10000 ng/ml. […] Non-compartmental method (linear trapezoidal rule and linear regression analysis of natural log-transformed plasma concentrations vs. time data) was used. After intravenous dosing, C0 was set equal to C0.083, Absolute bioavailability (F) was calculated from the ratio of average oral to IV (intravenous) dose-normalized plasma AUC (area under curve) values.

[5] = molecular target: PARP-2 FL (Homo sapiens, UniProt Q9UGN5); assay: Fluorescence polarization probe displacement assay; format: binding; conditions: for DC50: compound P1 as the probe
Sequence of PARP-2 FL (Q9UGN5 whole entry): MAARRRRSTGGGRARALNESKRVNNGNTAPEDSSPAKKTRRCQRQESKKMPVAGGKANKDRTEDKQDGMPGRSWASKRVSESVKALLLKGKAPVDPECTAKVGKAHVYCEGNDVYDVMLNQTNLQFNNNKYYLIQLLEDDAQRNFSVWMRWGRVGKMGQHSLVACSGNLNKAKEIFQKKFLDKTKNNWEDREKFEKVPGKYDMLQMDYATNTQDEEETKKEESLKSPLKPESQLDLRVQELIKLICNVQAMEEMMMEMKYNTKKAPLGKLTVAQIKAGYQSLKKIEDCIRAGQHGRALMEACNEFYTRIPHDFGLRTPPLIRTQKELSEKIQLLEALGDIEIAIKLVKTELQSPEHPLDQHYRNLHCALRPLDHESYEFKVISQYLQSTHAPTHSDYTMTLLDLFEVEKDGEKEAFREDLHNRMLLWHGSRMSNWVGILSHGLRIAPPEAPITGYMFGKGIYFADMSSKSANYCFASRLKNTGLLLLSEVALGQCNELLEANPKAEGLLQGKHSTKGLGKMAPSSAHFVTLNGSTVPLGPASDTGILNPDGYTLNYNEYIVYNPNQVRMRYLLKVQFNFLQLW
Description: as §1, §2, §3

Sequence of PARP-1 FL (P09874 whole entry): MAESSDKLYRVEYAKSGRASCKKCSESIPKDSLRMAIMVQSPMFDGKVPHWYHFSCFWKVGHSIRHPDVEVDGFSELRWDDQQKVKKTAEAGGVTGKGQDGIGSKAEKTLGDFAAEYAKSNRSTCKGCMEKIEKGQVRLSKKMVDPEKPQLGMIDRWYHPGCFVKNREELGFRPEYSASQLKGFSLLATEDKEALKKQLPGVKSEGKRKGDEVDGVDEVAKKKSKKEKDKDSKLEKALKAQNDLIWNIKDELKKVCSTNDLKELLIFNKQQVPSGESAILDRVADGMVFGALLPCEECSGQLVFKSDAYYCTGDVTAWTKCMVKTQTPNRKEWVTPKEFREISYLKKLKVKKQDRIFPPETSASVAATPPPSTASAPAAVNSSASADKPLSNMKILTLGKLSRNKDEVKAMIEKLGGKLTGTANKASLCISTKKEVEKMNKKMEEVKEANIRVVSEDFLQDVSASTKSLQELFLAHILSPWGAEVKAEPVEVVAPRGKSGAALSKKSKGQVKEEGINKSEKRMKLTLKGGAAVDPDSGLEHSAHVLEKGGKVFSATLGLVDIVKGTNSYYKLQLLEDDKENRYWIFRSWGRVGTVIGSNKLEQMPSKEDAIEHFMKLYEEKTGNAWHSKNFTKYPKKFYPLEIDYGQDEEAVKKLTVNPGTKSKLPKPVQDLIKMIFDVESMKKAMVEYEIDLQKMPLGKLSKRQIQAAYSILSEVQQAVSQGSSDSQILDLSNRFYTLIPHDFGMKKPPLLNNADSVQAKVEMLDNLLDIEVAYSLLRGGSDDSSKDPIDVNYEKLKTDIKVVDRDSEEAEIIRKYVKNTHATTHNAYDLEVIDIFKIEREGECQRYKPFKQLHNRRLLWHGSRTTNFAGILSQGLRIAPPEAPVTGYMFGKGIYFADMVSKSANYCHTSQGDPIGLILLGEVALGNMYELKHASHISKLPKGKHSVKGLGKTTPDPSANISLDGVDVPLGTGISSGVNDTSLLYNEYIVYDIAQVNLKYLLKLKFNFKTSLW

SMILES | Kd [1] [µM] | DC50 [1] [µM] | DC50 [2] [µM] | IC50 [3] [µM] | F on AUC [4] [%] | clearance [4] [mL/min/kg] | Vd [4] [L/kg] | AUC [4] [µM·h] | half-life [4] [h] | Kd [5] [µM] | DC50 [5] [µM]
COc1ccc(-c2[nH]c(=O)c3ccccc3c2OCCCN2CCCCC2)cc1 [Compound 23, 3-(4-Methoxy-phenyl)-4-(3-piperidin-1-yl-propoxy)-2H-isoquinolin-1-one] | < 0.03 | < 0.25 | 0.48 | 0.17 |  |  |  |  |  |  | 
COc1ccc(-c2[nH]c(=O)c3ccccc3c2OCCN)cc1.Cl [Compound 24, 4-(2-Amino-ethoxy)-3-(4-methoxy-phenyl)-2H-isoquinolin-1-one hydrochloride] | < 0.03 | 0.32 | 0.37 | 0.06 | 50 | 41.1 | 3 | 6.97 | 2.71 |  | 
NCCOc1c(-c2ccc(O)cc2)[nH]c(=O)c2ccccc12 [Compound 26, 4-(2-Amino-ethoxy)-3-(4-hydroxy-phenyl)-2H-isoquinolin-1-one] | < 0.01 | < 0.25 | 0.35 | 0.23 |  |  |  |  |  | 0.33 | 0.68
O=c1[nH]c(-c2ccc(O)cc2)c(OCCCN2CCCCC2)c2ccccc12 [Compound 27, 3-(4-Hydroxy-phenyl)-4-(3-piperidin-1-yl-propoxy)-2H-isoquinolin-1-one] | < 0.03 | < 0.25 | 0.55 | 0.25 |  |  |  |  |  | 0.33 | 0.77
NCCOc1c(-c2ccc(O)cc2)[nH]c(=O)c2cc(F)ccc12 [Compound 28, 4-(2-Amino-ethoxy)-7-fluoro-3-(4-hydroxy-phenyl)-2H-isoquinolin-1-one hydrobromide] | < 0.03 | < 0.25 | 0.47 | 0.4 |  |  |  |  |  |  | 1.1
NCCOc1c(-c2ccsc2)[nH]c(=O)c2ccccc12 [Compound 29, 4-(2-Amino-ethoxy)-3-thiophen-3-yl-2H-isoquinolin-1-one hydrochloride] | < 0.03 | < 0.25 | 0.2 |  |  |  |  |  |  |  | 0.54
NCCOc1c(-c2cccc(O)c2)[nH]c(=O)c2ccccc12 [Compound 32, 4-(2-Amino-ethoxy)-3-(3-hydroxy-phenyl)-2H-isoquinolin-1-one hydrochloride] | < 0.03 | < 0.25 | 0.28 | 0.2 |  |  |  |  |  | 0.45 | 0.79
O=c1[nH]c(-c2cccc(O)c2)c(OCCCN2CCCCC2)c2ccccc12 [Compound 33, 3-(3-Hydroxy-phenyl)-4-(3-piperidin-1-yl-propoxy)-2H-isoquinolin-1-one] | < 0.03 | < 0.25 | 0.34 | 0.41 | 24 | 176 | 2.9 | 0.64 | 1.11 | 0.25 | 0.58
COc1cccc(-c2[nH]c(=O)c3cc(F)ccc3c2OCCCN2CCCCC2)c1 [Compound 43, 7-Fluoro-3-(3-methoxy-phenyl)-4-(3-piperidin-1-yl-propoxy)-2H-isoquinolin-1-one hydrochloride] | 0.04 | < 0.25 | 2.52 | 0.09 |  |  |  |  |  | 2.02 | 4.21
O=c1[nH]c(-c2cccc(Cl)c2)c(OCCCN2CCCCC2)c2ccccc12 [Compound 44, 3-(3-Chloro-phenyl)-4-(3-piperidin-1-yl-propoxy)-2H-isoquinolin-1-one] | < 0.03 | < 0.25 | 1.23 | 0.13 |  |  |  |  |  | 0.4 | 0.7
O=c1[nH]c(-c2cccc(O)c2)c(OCCCN2CCCCC2)c2ccc(F)cc12 [Compound 45, 7-Fluoro-3-(3-hydroxy-phenyl)-4-(3-piperidin-1-yl-propoxy)-2H-isoquinolin-1-one hydrochloride] | < 0.03 | < 0.25 | 0.25 | 0.28 |  |  |  |  |  | 0.12 | 0.42
COc1cccc(-c2[nH]c(=O)c3cc(F)ccc3c2OCCN)c1 [Compound 46, 4-(2-Amino-ethoxy)-7-fluoro-3-(3-methoxy-phenyl)-2H-isoquinolin-1-one hydrochloride] | < 0.01 | < 0.25 | 0.37 | 0.06 |  |  |  |  |  | 3.61 | 5.99
NCCOc1c(-c2cccc(O)c2)[nH]c(=O)c2cc(F)ccc12 [Compound 47, 4-(2-Amino-ethoxy)-7-fluoro-3-(3-hydroxy-phenyl)-2H-isoquinolin-1-one] | < 0.03 | < 0.25 | 0.22 | 0.1 |  |  |  |  |  |  | 0.51
Cc1cccc2c(=O)[nH]c(-c3ccccc3)c(OCCN)c12 [Compound 49, 4-(2-Amino-ethoxy)-5-methyl-3-phenyl-2H-isoquinolin-1-one hydrochloride] | < 0.01 | < 0.25 | 0.2 | 0.09 |  |  |  |  |  |  | 0.97
NCCOc1c(-c2cccc(Cl)c2)[nH]c(=O)c2cc(F)ccc12 [Compound 50, 4-(2-Amino-ethoxy)-3-(3-chloro-phenyl)-7-fluoro-2H-isoquinolin-1-one hydrochloride] | < 0.03 | < 0.25 | 0.33 | 0.08 |  |  |  |  |  |  | 3.3
CN(C)CCOc1c(-c2ccccc2)[nH]c(=O)c2cc(F)ccc12 [Compound 84, 4-[2-(dimethylamino)ethoxy]-7-fluoro-3-phenylisoquinolin-1(2H)-one] |  | < 0.25 | 1.11 | 0.57 |  |  |  |  |  |  | 3.86
O=c1[nH]c(-c2ccccc2)c(OC2CCNCC2)c2ccc(F)cc12 [Compound 85, 7-fluoro-3-phenyl-4-(piperidin-4-yloxy)isoquinolin-1(2H)-one hydrochloride] |  | 0.38 | 0.54 |  |  |  |  |  |  |  | 4.35
NCCCOc1c(-c2ccccc2)[nH]c(=O)c2cc(F)ccc12 [Compound 86, 4-(3-aminopropoxy)-7-fluoro-3-phenylisoquinolin-1(2H)-one hydrochloride] |  | < 0.25 | 0.33 | 0.54 |  |  |  |  |  |  | 4.72
O=c1[nH]c(-c2ccccc2)c(OCCCNCc2ccccc2)c2ccc(F)cc12 [Compound 87, 4-[3-(benzylamino)propoxy]-7-fluoro-3-phenylisoquinolin-1(2H)-one] |  | < 0.25 | 1.11 | 0.4 |  |  |  |  |  |  | > 10
CCN(CC)CCOc1c(-c2ccccc2)[nH]c(=O)c2cc(F)ccc12 [Compound 88, 4-[2-(diethylamino)ethoxy]-7-fluoro-3-phenylisoquinolin-1(2H)-one trifluoroacetate] |  | 1.59 | > 10 | 3.44 |  |  |  |  |  |  | 5.85
CN1CCN(CCOc2c(-c3ccccc3)[nH]c(=O)c3cc(F)ccc23)CC1 [Compound 89, 7-fluoro-4-[2-(4-methylpiperazin-1-yl)ethoxy]-3-phenylisoquinolin-1(2H)-one trifluoroacetate] |  | 0.4 | 6.45 | 7.55 |  |  |  |  |  |  | > 10
